Laboratory results published in the supplement of paper PMC10307832.

Key:
Test in all cases: relative viability (nuclei count vs DMSO), 5 days (fraction); higher = more cells survive
[1] = compound: Cc1ccc(NC(=O)c2ccc(CN3CCN(C)CC3)cc2)cc1Nc1nc(-c2cccnc2)cs1 [Masitinib] + Nc1nc2[nH]cc(CCc3ccc(C(=O)N[C@@H](CCC(=O)O)C(=O)O)cc3)c2c(=O)[nH]1 [Pemetrexed] (partner 0.2 µM)
Procedure, shortened: (§1)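 Relative viability divides the nuclei count in treated wells by that in vehicle wells. Lung cancer cell lines were seeded in 1536-well plates, dosed by pin tool the next day, and fixed and stained after 5 days in one step with final 0.05% Triton X-100, 1% formaldehyde and 1 ug/ml Hoechst. Dosing was a single drug or a fixed anchor-drug dose plus five library-drug doses (not always all listed) in √10 steps, and values are medians of duplicate plates imaged at 4×.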

[2] = compound: CC1=CC(=CC=C1)NC2=NC(=CS2)C3=CC=NC=C3 + COc1cccc2cc(-c3nc([C@H]4CC[C@H](C(=O)O)CC4)n4ncnc(N)c34)[nH]c12 [OSI-027] (partner 0.5 µM)
Procedure, shortened: as §1

[3] = compound: Cc1ccc(NC(=O)c2ccc(CN3CCN(C)CC3)cc2)cc1Nc1nc(-c2cccnc2)cs1 [Masitinib]
Procedure, shortened: (§2)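 Following overnight incubation at 37 °C, lung cancer cell lines in 1536-well plates were pinned with five library-drug doses (not always all listed) in √10 steps on vehicle-anchored plates. The cells then spent 5 days without medium change before a combined fix, permeabilisation and Hoechst stain, 4× imaging and MetaXpress nuclear counts. Viability is the treated-to-vehicle ratio of nuclei, taken as the median across plates. Only plates with control CV below 25% and at least one doubling passed.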

[4] = compound: CC1=CC(=CC=C1)NC2=NC(=CS2)C3=CC=NC=C3
Procedure, shortened: as §2

NCI-H2228
relative viability ([1]; first compound 0.01 µM): 0.342
relative viability ([1]; first compound 0.03162 µM): 0.372
relative viability ([1]; first compound 0.1 µM): 0.347
relative viability ([1]; first compound 0.3162 µM): 0.347
relative viability ([1]; first compound 1 µM): 0.363
relative viability ([2]; first compound 0.08 µM): 0.375
relative viability ([2]; first compound 0.253 µM): 0.463
relative viability ([2]; first compound 0.8 µM): 0.517
relative viability ([2]; first compound 2.53 µM): 0.472
relative viability ([2]; first compound 8 µM): 0.398
relative viability ([3]; 0.01 µM): 0.998
relative viability ([3]; 0.03162 µM): 0.808
relative viability ([3]; 0.1 µM): 1.16
relative viability ([3]; 0.3162 µM): 1.04
relative viability ([3]; 1 µM): 1.06
relative viability ([4]; 0.08 µM): 0.838
relative viability ([4]; 0.253 µM): 0.948
relative viability ([4]; 0.8 µM): 0.784
relative viability ([4]; 2.53 µM): 0.91
relative viability ([4]; 8 µM): 0.726

NCI-H2342
relative viability ([1]; first compound 0.01 µM): 0.741
relative viability ([1]; first compound 0.03162 µM): 0.72
relative viability ([1]; first compound 0.1 µM): 0.831
relative viability ([1]; first compound 0.3162 µM): 0.746
relative viability ([1]; first compound 1 µM): 0.781
relative viability ([2]; first compound 0.08 µM): 0.623
relative viability ([2]; first compound 0.253 µM): 0.588
relative viability ([2]; first compound 0.8 µM): 0.65
relative viability ([2]; first compound 2.53 µM): 0.5
relative viability ([2]; first compound 8 µM): 0.607
relative viability ([3]; 0.01 µM): 1.03
relative viability ([3]; 0.03162 µM): 0.866
relative viability ([3]; 0.1 µM): 1.07
relative viability ([3]; 0.3162 µM): 0.889
relative viability ([3]; 1 µM): 0.843
relative viability ([4]; 0.08 µM): 0.96
relative viability ([4]; 0.253 µM): 0.929
relative viability ([4]; 0.8 µM): 0.95
relative viability ([4]; 2.53 µM): 0.93
relative viability ([4]; 8 µM): 0.881

NCI-H2347
relative viability ([1]; first compound 0.01 µM): 0.425
relative viability ([1]; first compound 0.03162 µM): 0.406
relative viability ([1]; first compound 0.1 µM): 0.385
relative viability ([1]; first compound 0.3162 µM): 0.446
relative viability ([1]; first compound 1 µM): 0.417
relative viability ([2]; first compound 0.08 µM): 0.362
relative viability ([2]; first compound 0.253 µM): 0.328
relative viability ([2]; first compound 2.53 µM): 0.419
relative viability ([2]; first compound 8 µM): 0.411
relative viability ([3]; 0.01 µM): 0.88
relative viability ([3]; 0.03162 µM): 0.911
relative viability ([3]; 0.1 µM): 1
relative viability ([3]; 0.3162 µM): 1.02
relative viability ([3]; 1 µM): 0.966
relative viability ([4]; 0.08 µM): 0.948
relative viability ([4]; 0.253 µM): 0.864
relative viability ([4]; 0.8 µM): 0.749
relative viability ([4]; 2.53 µM): 0.982
relative viability ([4]; 8 µM): 0.964

NCI-H2405
relative viability ([1]; first compound 0.01 µM): 0.962
relative viability ([1]; first compound 0.03162 µM): 1.05
relative viability ([1]; first compound 0.1 µM): 0.98
relative viability ([1]; first compound 0.3162 µM): 1.04
relative viability ([1]; first compound 1 µM): 0.704
relative viability ([2]; first compound 0.08 µM): 0.564
relative viability ([2]; first compound 0.253 µM): 0.636
relative viability ([2]; first compound 0.8 µM): 0.531
relative viability ([2]; first compound 2.53 µM): 0.702
relative viability ([2]; first compound 8 µM): 0.671
relative viability ([3]; 0.01 µM): 0.859
relative viability ([3]; 0.03162 µM): 0.953
relative viability ([3]; 0.1 µM): 0.907
relative viability ([3]; 0.3162 µM): 0.973
relative viability ([3]; 1 µM): 0.932
relative viability ([4]; 0.08 µM): 0.851
relative viability ([4]; 0.253 µM): 0.918
relative viability ([4]; 0.8 µM): 0.85
relative viability ([4]; 2.53 µM): 0.915
relative viability ([4]; 8 µM): 0.901

NCI-H3122
relative viability ([1]; first compound 0.01 µM): 0.175
relative viability ([1]; first compound 0.03162 µM): 0.196
relative viability ([1]; first compound 0.1 µM): 0.193
relative viability ([1]; first compound 0.3162 µM): 0.201
relative viability ([1]; first compound 1 µM): 0.191
relative viability ([2]; first compound 0.08 µM): 0.824
relative viability ([2]; first compound 0.253 µM): 1.03
relative viability ([2]; first compound 0.8 µM): 1.12
relative viability ([2]; first compound 2.53 µM): 1.09
relative viability ([2]; first compound 8 µM): 0.969
relative viability ([3]; 0.01 µM): 0.854
relative viability ([3]; 0.03162 µM): 1.03
relative viability ([3]; 0.1 µM): 0.959
relative viability ([3]; 0.3162 µM): 1
relative viability ([3]; 1 µM): 1.08
relative viability ([4]; 0.08 µM): 0.983
relative viability ([4]; 0.253 µM): 1.05
relative viability ([4]; 0.8 µM): 1.04
relative viability ([4]; 2.53 µM): 1.06
relative viability ([4]; 8 µM): 0.972

PC-3 [JPC-3]
relative viability ([1]; first compound 0.01 µM): 1.04
relative viability ([1]; first compound 0.03162 µM): 0.733
relative viability ([1]; first compound 0.1 µM): 1.06
relative viability ([1]; first compound 0.3162 µM): 1.37
relative viability ([1]; first compound 1 µM): 0.87
relative viability ([2]; first compound 0.08 µM): 0.651
relative viability ([2]; first compound 0.253 µM): 0.659
relative viability ([2]; first compound 0.8 µM): 0.599
relative viability ([2]; first compound 2.53 µM): 0.607
relative viability ([2]; first compound 8 µM): 0.594
relative viability ([3]; 0.01 µM): 0.95
relative viability ([3]; 0.03162 µM): 0.951
relative viability ([3]; 0.1 µM): 1.04
relative viability ([3]; 0.3162 µM): 1.04
relative viability ([3]; 1 µM): 1.02
relative viability ([4]; 0.08 µM): 0.941
relative viability ([4]; 0.253 µM): 0.936
relative viability ([4]; 0.8 µM): 0.927
relative viability ([4]; 2.53 µM): 0.868
relative viability ([4]; 8 µM): 0.91
